Data reported in the NIST ThermoML archive (doi:10.1021/je060271a).
“And” between values parts separate entries of the source, which are not always exact repeats. Identical values can stand only once.

Conditions: 283.15 K, Liquid, Vibrating tube method

CCCCCC(=O)OCC(COC(=O)CCCCC)(COC(=O)CCCCC)COC(=O)CCCCC [pentaerythritol tetrahexanoate]
Conditions	mass density
15225 kPa	1012.8 kg/m3
15241 kPa	1012.9 kg/m3
15260 kPa	1012.8 kg/m3
15276 kPa	1012.7 kg/m3
15292 kPa	1012.8 kg/m3
15311 kPa	1012.8 kg/m3
15327 kPa	1013 kg/m3
15343 kPa	1012.8 kg/m3
15363 kPa	1012.9 kg/m3
15379 kPa	1013.1 kg/m3
15395 kPa	1012.9 kg/m3
15412 kPa	1013 kg/m3
15432 kPa	1012.9 kg/m3
15448 kPa	1012.9 kg/m3
15467 kPa	1013.1 kg/m3
15483 kPa	1013.1 kg/m3
15500 kPa	1013.1 kg/m3
15519 kPa	1012.8 kg/m3
15536 kPa	1013.1 kg/m3
15552 kPa	1012.9 kg/m3
15572 kPa	1013 kg/m3
15589 kPa	1013 kg/m3
15606 kPa	1013 kg/m3
15626 kPa	1013 kg/m3
15642 kPa	1013.1 kg/m3
15659 kPa	1012.9 kg/m3
15679 kPa	1013 kg/m3
15696 kPa	1013.1 kg/m3
15713 kPa	1013.1 kg/m3
15733 kPa	1013 kg/m3
15750 kPa	1013.1 kg/m3
15767 kPa	1013.1 kg/m3
15788 kPa	1013 kg/m3
15805 kPa	1013.2 kg/m3
15823 kPa	1013.2 kg/m3
15841 kPa	1013.2 kg/m3
15861 kPa	1013.1 kg/m3
15878 kPa	1013.2 kg/m3
16066 kPa	1013.4 kg/m3
16083 kPa	1013.3 kg/m3
16104 kPa	1013.4 kg/m3
16122 kPa	1013.3 kg/m3
16139 kPa	1013.3 kg/m3
16157 kPa	1013.3 kg/m3
16178 kPa	1013.2 kg/m3
16195 kPa	1013.3 kg/m3
16214 kPa	1013.4 kg/m3
16230 kPa	1013.4 kg/m3
16247 kPa	1013.2 kg/m3
16266 kPa	1013.4 kg/m3
16282 kPa	1013.4 kg/m3
16299 kPa	1013.5 kg/m3
16315 kPa	1013.4 kg/m3
16334 kPa	1013.3 kg/m3
16351 kPa	1013.4 kg/m3
16368 kPa	1013.6 kg/m3
16388 kPa	1013.5 kg/m3
16404 kPa	1013.4 kg/m3
16421 kPa	1013.5 kg/m3
16441 kPa	1013.4 kg/m3
16457 kPa	1013.5 kg/m3
16474 kPa	1013.5 kg/m3
16491 kPa	1013.6 kg/m3
16511 kPa	1013.5 kg/m3
16528 kPa	1013.6 kg/m3
16545 kPa	1013.6 kg/m3
16565 kPa	1013.7 kg/m3
16582 kPa	1013.5 kg/m3
16598 kPa	1013.5 kg/m3
16619 kPa	1013.6 kg/m3
16636 kPa	1013.6 kg/m3
16653 kPa	1013.6 kg/m3
16673 kPa	1013.6 kg/m3
16690 kPa	1013.7 kg/m3
16707 kPa	1013.6 kg/m3
16727 kPa	1013.6 kg/m3
16745 kPa	1013.6 kg/m3
16762 kPa	1013.6 kg/m3
16782 kPa	1013.6 kg/m3
16800 kPa	1013.6 kg/m3
16817 kPa	1013.7 kg/m3
16837 kPa	1013.7 kg/m3
16854 kPa	1013.6 kg/m3
16872 kPa	1013.7 kg/m3
16893 kPa	1013.7 kg/m3
16911 kPa	1013.8 kg/m3
16929 kPa	1013.8 kg/m3
16951 kPa	1013.7 kg/m3
16969 kPa	1013.8 kg/m3
16988 kPa	1013.8 kg/m3
17008 kPa	1013.8 kg/m3
17031 kPa	1013.9 kg/m3
17050 kPa	1013.8 kg/m3
17097 kPa	1013.8 kg/m3
17099 kPa	1013.9 kg/m3
17100 kPa	1013.9 kg/m3
17101 kPa	1013.7 kg/m3
17113 kPa	1013.8 kg/m3
17138 kPa	1013.8 kg/m3
17147 kPa	1013.8 kg/m3
17148 kPa	1013.8 kg/m3 and 1014 kg/m3
17156 kPa	1013.8 kg/m3
17174 kPa	1013.8 kg/m3
17193 kPa	1013.9 kg/m3
17211 kPa	1013.9 kg/m3
17233 kPa	1013.8 kg/m3
17252 kPa	1013.9 kg/m3
17270 kPa	1014 kg/m3
17291 kPa	1013.9 kg/m3
17309 kPa	1013.8 kg/m3
17331 kPa	1014 kg/m3
17350 kPa	1013.9 kg/m3
17373 kPa	1013.9 kg/m3
17392 kPa	1014 kg/m3
17411 kPa	1014.1 kg/m3
17430 kPa	1014 kg/m3
17453 kPa	1014.1 kg/m3
17472 kPa	1014 kg/m3
17491 kPa	1014.1 kg/m3
17514 kPa	1014.1 kg/m3
17534 kPa	1014.1 kg/m3
17555 kPa	1014 kg/m3
17574 kPa	1014.1 kg/m3
17593 kPa	1014.1 kg/m3
17616 kPa	1014.1 kg/m3
17635 kPa	1014.1 kg/m3
17656 kPa	1014 kg/m3
17672 kPa	1014.2 kg/m3
17688 kPa	1014.2 kg/m3
17708 kPa	1014 kg/m3
17723 kPa	1014.2 kg/m3
17739 kPa	1014.3 kg/m3
17758 kPa	1014.2 kg/m3
17775 kPa	1014.2 kg/m3
17791 kPa	1014.2 kg/m3
17807 kPa	1014.3 kg/m3
17827 kPa	1014.2 kg/m3
17843 kPa	1014.2 kg/m3
17861 kPa	1014.3 kg/m3
17877 kPa	1014.2 kg/m3
17892 kPa	1014.2 kg/m3
17907 kPa	1014.3 kg/m3
17925 kPa	1014.3 kg/m3
17939 kPa	1014.3 kg/m3
